Measurements as given in article PMC4467398, “Preclinical antitumor activity of ST7612AA1: a new oral thiol-based histone deacetylase (HDAC) inhibitor” (Oncotarget, 2014).

Tested on: DOHH2 and TMD8 DLBCL cells
Assay: Gene expression profiling (HumanHT-12 v4 BeadChip, limma), ST7612AA1 300 nM 8 hrs vs DMSO
Type: cell-based, human
Details: 300 nM 8 hrs vs DMSO

CC(=O)SCCCCC[C@H](NC(=O)[C@H]1CCC(=O)N1)C(=O)Nc1ccccc1 [ST7612AA1]
log ratio ESAM (probe ILMN_1668092): 7.54E-01 | log ratio EVI2A (ILMN_1733579): -1.21E+00 | log ratio EXOSC8 (ILMN_1756162): -8.59E-01 | log ratio EXTL2 (ILMN_2388425): 6.00E-01 | log ratio F11R (probe ILMN_2342033): 8.81E-01 | log ratio FAIM (ILMN_1690101): -1.08E+00 | log ratio FAIM (ILMN_2351548): -9.70E-01 | log ratio FAM49A (ILMN_1794038): 6.23E-01 | log ratio FAM65A (probe ILMN_1680037): 7.70E-01 | log ratio FAM108A2 (ILMN_3178529): 6.40E-01 | log ratio FAM110A (ILMN_2323944): 6.14E-01 | log ratio FAM116B (probe ILMN_1659029): 7.74E-01 | log ratio FAM120B (probe ILMN_1679641): 7.62E-01 | log ratio FAM136A (ILMN_1655307): -1.26E+00 | log ratio FAM136B (ILMN_3241756): -7.94E-01 | log ratio FAM149B1 (probe ILMN_3245452): 7.21E-01 | log ratio FAM160B1 (ILMN_3231638): -6.11E-01 | log ratio FAM164A (ILMN_1789558): 6.20E-01 | log ratio FAM167A (probe ILMN_3248511): 7.13E-01 | log ratio FBXO15 (ILMN_1755281): 6.57E-01 | log ratio FBXO18 (probe ILMN_1729430): 7.97E-01 | log ratio FCGRT (probe ILMN_1705302): 6.92E-01 | log ratio FCHSD2 (ILMN_1815734): -6.17E-01 | log ratio FERMT3 (ILMN_2366330): -1.23E+00 | log ratio FGD2 (probe ILMN_2115005): 7.14E-01 | log ratio FGF9 (probe ILMN_1762531): 7.84E-01 | log ratio FHL1 (probe ILMN_1805842): 7.76E-01 | log ratio FKBP11 (ILMN_1787345): -9.71E-01 | log ratio FLJ22795 (probe ILMN_2150802): 8.56E-01 | log ratio FNBP1 (ILMN_1797342): 6.67E-01 | log ratio FOXC1 (probe ILMN_1738401): 8.63E-01 | log ratio FOXO1 (probe ILMN_1738816): 8.61E-01 | log ratio FOXO4 (probe ILMN_1712095): 6.93E-01 | log ratio FSD1 (probe ILMN_1813490): 7.25E-01 | log ratio FUCA1 (probe ILMN_1752728): 8.57E-01 | log ratio FVT1 (ILMN_2154052): 6.36E-01 | log ratio FXYD5 (ILMN_2309848): 6.27E-01 | log ratio G6PD (probe ILMN_1697559): 6.93E-01 | log ratio GABARAPL2 (probe ILMN_1796458): 7.62E-01 | log ratio GAMT (probe ILMN_1756469): 8.74E-01 | log ratio GAPT (ILMN_1675191): -1.10E+00 | log ratio GAPT (ILMN_3242271): -1.08E+00 | log ratio GAR1 (ILMN_2412549): -9.54E-01 | log ratio GAR1 (ILMN_3263329): -9.36E-01 | log ratio GATM (probe ILMN_1729180): 7.75E-01 | log ratio GATS (ILMN_1699631): 6.00E-01 | log ratio GBE1 (ILMN_1789702): -8.91E-01 | log ratio GCDH (ILMN_2296843): 6.56E-01 | log ratio GCH1 (probe ILMN_1812759): 7.11E-01 | log ratio GINS3 (ILMN_1754272): -8.17E-01 | log ratio GM2A (ILMN_2221046): 5.90E-01 | log ratio GMEB2 (ILMN_1683204): -5.99E-01 | log ratio GNG11 (ILMN_1782419): 6.02E-01 | log ratio GOLGB1 (probe ILMN_1747935): 7.13E-01 | log ratio GPATCH4 (ILMN_2383305): -1.16E+00 | log ratio GPATCH4 (ILMN_2383306): -1.12E+00 | log ratio GPER (ILMN_1795298): -1.70E+00 | log ratio GPER (ILMN_2384056): -1.82E+00 | log ratio GPT2 (probe ILMN_1684158): 8.12E-01 | log ratio GPX4 (ILMN_1734353): 6.05E-01 | log ratio GPX7 (ILMN_1726030): -1.08E+00 | log ratio GRB2 (ILMN_1748797): 6.01E-01 | log ratio GRN (probe ILMN_1724250): 8.24E-01 | log ratio GRWD1 (ILMN_1742166): -6.02E-01 | log ratio GSDMB (ILMN_2347193): 6.61E-01 | log ratio GSTO1 (ILMN_2227573): -6.01E-01 | log ratio GTF2B (ILMN_1737857): 6.21E-01 | log ratio GTF2I (ILMN_1673917): -1.01E+00 | log ratio GTF2IRD2B (ILMN_1680501): -1.15E+00 | log ratio GTF3C2 (ILMN_1746457): -7.85E-01 | log ratio GTF3C6 (ILMN_1691578): -1.19E+00 | log ratio GTPBP6 (ILMN_1776080): -8.00E-01 | log ratio HABP4 (ILMN_1792384): 5.90E-01 | log ratio HABP4 (probe ILMN_2107991): 7.82E-01 | log ratio HAGH (probe ILMN_1772731): 8.84E-01 | log ratio HCFC1 (ILMN_1732705): -1.50E+00 | log ratio HDDC2 (ILMN_1753745): -8.45E-01 | log ratio HDGF (ILMN_1765621): -8.47E-01 | log ratio HERC1 (probe ILMN_1786211): 7.40E-01 | log ratio HERC6 (ILMN_1654639): -6.08E-01 | log ratio HERPUD1 (probe ILMN_2374159): 8.50E-01 | log ratio HEY1 (probe ILMN_1788203): 8.91E-01 | log ratio HEY2 (probe ILMN_1682034): 7.56E-01 | log ratio HIST1H1C (probe ILMN_1757406): 8.24E-01 | log ratio HIST2H2AA3 (probe ILMN_2144426): 8.03E-01 | log ratio HK2 (ILMN_1723486): -1.09E+00 | log ratio HLA-DOA (ILMN_1659075): 6.55E-01 | log ratio HLA-DPA1 (probe ILMN_1772218): 8.12E-01 | log ratio HLA-DQA1 (probe ILMN_1808405): 8.25E-01 | log ratio HLA-DRB4 (probe ILMN_1752592): 7.27E-01 | log ratio HLA-DRB6 (ILMN_2066066): 5.94E-01 | log ratio HLA-E (probe ILMN_1765258): 8.07E-01 | log ratio HLTF (ILMN_1798588): 6.54E-01 | log ratio HLTF (probe ILMN_1673820): 7.48E-01 | log ratio HNRNPR (ILMN_3177285): -5.97E-01 | log ratio HNRPH3 (ILMN_1654920): -7.98E-01 | log ratio HNRPLL (ILMN_1791575): 6.20E-01 | log ratio HOOK2 (probe ILMN_1682147): 7.36E-01 | log ratio HPSE (ILMN_1779547): 5.94E-01 | log ratio HSD17B8 (ILMN_1715324): 6.72E-01 | log ratio HSPA1B (probe ILMN_1660436): 7.16E-01 | log ratio HSPC111 (ILMN_1704055): -1.16E+00 | log ratio ID1 (probe ILMN_1664861): 7.75E-01 | log ratio IFFO1 (probe ILMN_2348268): 8.07E-01 | log ratio IFI16 (ILMN_1710937): -9.06E-01 | log ratio IFI35 (ILMN_1745374): -8.00E-01 | log ratio IFRD2 (ILMN_1742031): -7.99E-01 | log ratio IGSF3 (probe ILMN_1704353): 8.50E-01 | log ratio INTS10 (ILMN_1679483): -8.21E-01 | log ratio IRAK1 (ILMN_2379130): -1.37E+00 | log ratio IRAK2 (ILMN_1745964): 6.17E-01 | log ratio ISG20L1 (ILMN_1814282): -8.55E-01 | log ratio ISOC2 (ILMN_1769158): -9.83E-01 | log ratio ITFG2 (ILMN_1701244): -8.71E-01 | log ratio ITFG3 (ILMN_1810055): 6.64E-01 | log ratio ITGA4 (ILMN_1747052): -6.00E-01 | log ratio ITGB1 (ILMN_1723467): 6.32E-01 | log ratio ITGB1 (ILMN_2383934): 6.80E-01 | log ratio ITGB1 (probe ILMN_1714820): 7.06E-01 | log ratio ITPKA (probe ILMN_1776516): 7.10E-01 | log ratio JAK1 (probe ILMN_1793384): 7.91E-01 | log ratio KAT2A (ILMN_1782247): -6.02E-01 | log ratio KBTBD2 (ILMN_1784540): -6.12E-01 | log ratio KEAP1 (ILMN_2410771): -8.88E-01 | log ratio KEAP1 (ILMN_2410772): -9.23E-01 | log ratio KIAA0020 (ILMN_1665483): -7.91E-01 | log ratio KIAA0368 (ILMN_1847822): -1.24E+00 | log ratio KIAA1602 (ILMN_1763640): 6.30E-01 | log ratio KIF3B (ILMN_1702279): 6.21E-01 | log ratio KIFC2 (ILMN_1803018): 6.72E-01 | log ratio KLF9 (ILMN_1778523): 6.77E-01 | log ratio KLHDC5 (ILMN_1727134): -1.09E+00 | log ratio KLHL5 (probe ILMN_1706687): 8.05E-01 | log ratio KLRAQ1 (probe ILMN_3271092): 7.11E-01 | log ratio KPNB1 (ILMN_1703949): -1.01E+00 | log ratio L3MBTL2 (ILMN_3307786): -8.52E-01 | log ratio LAMC1 (ILMN_1810852): 6.63E-01 | log ratio LANCL2 (ILMN_1708009): -8.15E-01 | log ratio LARP1B (ILMN_1733390): -7.84E-01 | log ratio LASS2 (ILMN_1726108): -7.85E-01 | log ratio LASS2 (ILMN_2400500): -9.26E-01 | log ratio LCMT1 (probe ILMN_1688452): 7.21E-01 | log ratio LCMT1 (probe ILMN_2336186): 7.52E-01 | log ratio LIN9 (ILMN_2137084): -6.10E-01 | log ratio LMNA (probe ILMN_1737394): 7.98E-01 | log ratio LOC151162 (probe ILMN_3238058): 7.72E-01 | log ratio LOC205251 (ILMN_1693685): -6.17E-01 | log ratio LOC253039 (probe ILMN_3236498): 8.10E-01 | log ratio LOC283683 (probe ILMN_1659327): 8.30E-01 | log ratio LOC285176 (ILMN_1694327): -5.99E-01
